Measurements taken from ChEMBL document CHEMBL5512651, “Synthesis and biological evaluation of 4-imidazolidinone-containing compounds as potent inhibitors of the MDM2/p53 interaction” (Eur J Med Chem, 2024).
Activity calls are given as the source filed them. The rule behind the calls is not given here.

Key:
[1] = tested on: MOLM-13; experiment: Induction of apoptosis in human MOLM-13 cells assessed as late apoptotic cells at 0.9 uM incubated for 24 hrs by Annexin V-FITC/PI staining based flow cytometry (reference value: 0.457 %); assay type: functional
[2] = molecular target: Cellular tumor antigen p53 (Homo sapiens) (UniProt P04637); experiment: Activation of p53 pathway in human A549 cells assessed as increase in p53 level at 1 uM incubated for 24 hrs by Western blot analysis; assay type: cell-based; conditions: filed as activator
Chain of Cellular tumor antigen p53 (Homo sapiens) (P04637 whole entry, looked up): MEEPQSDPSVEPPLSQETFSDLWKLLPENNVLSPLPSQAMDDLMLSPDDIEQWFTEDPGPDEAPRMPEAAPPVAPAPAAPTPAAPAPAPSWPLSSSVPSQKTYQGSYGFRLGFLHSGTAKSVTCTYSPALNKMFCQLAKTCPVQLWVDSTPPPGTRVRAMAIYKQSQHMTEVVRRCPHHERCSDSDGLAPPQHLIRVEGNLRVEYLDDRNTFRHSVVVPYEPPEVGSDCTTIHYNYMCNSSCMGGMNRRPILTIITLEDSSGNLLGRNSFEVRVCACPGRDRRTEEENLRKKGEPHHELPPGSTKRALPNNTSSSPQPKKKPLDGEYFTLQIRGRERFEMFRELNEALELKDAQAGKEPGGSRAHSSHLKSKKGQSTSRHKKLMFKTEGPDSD

[3] = molecular target: Cellular tumor antigen p53 (Homo sapiens) (UniProt P04637); experiment: Activation of p53 pathway in human HeLa cells assessed as increase in MDM2 level at 1 uM incubated for 24 hrs by Western blot analysis; assay type: cell-based
[4] = tested on: MOLM-13; experiment: Induction of apoptosis in human MOLM-13 cells assessed as necrotic cells at 24.3 uM incubated for 24 hrs by Annexin V-FITC/PI staining based flow cytometry (reference value: 0.020 %); assay type: functional
[5] = molecular target: Cellular tumor antigen p53 (Homo sapiens) (UniProt P04637); experiment: Activation of p53 pathway in human MOLM-13 cells assessed as increase in p21 level incubated for 24 hrs by Western blot analysis; assay type: cell-based; conditions: filed as activator, dose 0.038-0.6 µM
[6] = molecular target: Cellular tumor antigen p53 (Homo sapiens) (UniProt P04637); experiment: Activation of p53 pathway in human MOLM-13 cells assessed as increase in PUMA mRNA level incubated for 24 hrs by qPCR analysis; assay type: cell-based; conditions: filed as activator, dose 0.038-0.6 µM
[7] = tested on: MOLM-13; experiment: Induction of apoptosis in human MOLM-13 cells assessed as viable cells at 24.3 uM incubated for 24 hrs by Annexin V-FITC/PI staining based flow cytometry (reference value: 95.1 %); assay type: functional; conditions: read-out: Activity
[8] = molecular target: Cellular tumor antigen p53 (Homo sapiens) (UniProt P04637); experiment: Activation of p53 pathway in human A549 cells assessed as increase in MDM2 level at 1 uM incubated for 24 hrs by Western blot analysis; assay type: cell-based; conditions: filed as activator
[9] = tested on: MOLM-13; experiment: Induction of apoptosis in human MOLM-13 cells assessed as late apoptotic cells at 0.1 uM incubated for 24 hrs by Annexin V-FITC/PI staining based flow cytometry (reference value: 0.457 %); assay type: functional
[10] = tested on: MOLM-13; experiment: Induction of apoptosis in human MOLM-13 cells assessed as early apoptotic cells at 0.3 uM incubated for 24 hrs by Annexin V-FITC/PI staining based flow cytometry (reference value: 4.44 %); assay type: functional
[11] = tested on: MOLM-13; experiment: Induction of apoptosis in human MOLM-13 cells assessed as late apoptotic cells at 0.3 uM incubated for 24 hrs by Annexin V-FITC/PI staining based flow cytometry (reference value: 0.457 %); assay type: functional
[12] = molecular target: Cellular tumor antigen p53 (Homo sapiens) (UniProt P04637); experiment: Activation of p53 pathway in human MOLM-13 cells assessed as increase in MDM2 level incubated for 24 hrs by Western blot analysis; assay type: cell-based; conditions: filed as activator, dose 0.038-0.6 µM
[13] = molecular target: Tumour suppressor p53/oncoprotein Mdm2 (Homo sapiens, UniProt Q00987); experiment: Inhibition of MDM2/p53 (unknown origin) interaction by fluorescence polarization assay; assay type: protein assay
Chain of Tumour suppressor p53/oncoprotein Mdm2 (P04637 whole entry): as the sequence (P04637 whole entry, looked up) above
Chain of Tumour suppressor p53/oncoprotein Mdm2 (Q00987 whole entry): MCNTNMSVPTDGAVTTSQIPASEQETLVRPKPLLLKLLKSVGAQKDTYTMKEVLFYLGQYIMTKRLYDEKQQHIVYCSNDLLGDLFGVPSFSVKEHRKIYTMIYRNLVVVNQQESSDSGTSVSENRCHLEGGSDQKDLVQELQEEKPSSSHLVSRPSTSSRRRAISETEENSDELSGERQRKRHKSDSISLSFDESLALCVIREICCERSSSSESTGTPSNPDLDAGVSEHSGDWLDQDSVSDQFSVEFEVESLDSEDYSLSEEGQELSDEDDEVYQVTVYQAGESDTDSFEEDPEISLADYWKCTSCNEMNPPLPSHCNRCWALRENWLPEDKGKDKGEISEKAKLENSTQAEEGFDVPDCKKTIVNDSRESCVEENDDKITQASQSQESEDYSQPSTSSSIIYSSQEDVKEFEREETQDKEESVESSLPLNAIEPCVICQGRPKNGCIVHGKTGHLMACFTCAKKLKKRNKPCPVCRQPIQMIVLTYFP

[14] = tested on: MOLM-13; experiment: Induction of apoptosis in human MOLM-13 cells assessed as late apoptotic cells at 8.1 uM incubated for 24 hrs by Annexin V-FITC/PI staining based flow cytometry (reference value: 0.457 %); assay type: functional
[15] = tested on: MOLM-13; experiment: Induction of apoptosis in human MOLM-13 cells assessed as viable cells at 8.1 uM incubated for 24 hrs by Annexin V-FITC/PI staining based flow cytometry (reference value: 95.1 %); assay type: functional; conditions: read-out: Activity
[16] = tested on: SW480; experiment: cells; conditions: Homo sapiens, SW480, 96 h
[17] = Selectivity index, ratio of IC50 for HEK293 cells to IC50 for human SW480 cells
[18] = tested on: MOLM-13; experiment: Induction of apoptosis in human MOLM-13 cells assessed as necrotic cells at 0.9 uM incubated for 24 hrs by Annexin V-FITC/PI staining based flow cytometry (reference value: 0.020 %); assay type: functional
[19] = molecular target: Cellular tumor antigen p53 (Homo sapiens) (UniProt P04637); experiment: Activation of p53 pathway in human HCT-116 cells assessed as increase in p53 level at 1 uM incubated for 24 hrs by Western blot analysis; assay type: cell-based; conditions: filed as activator
[20] = tested on: MOLM-13; experiment: Induction of apoptosis in human MOLM-13 cells assessed as early apoptotic cells at 8.1 uM incubated for 24 hrs by Annexin V-FITC/PI staining based flow cytometry (reference value: 4.44 %); assay type: functional
[21] = tested on: MOLM-13; experiment: Induction of apoptosis in human MOLM-13 cells assessed as early apoptotic cells at 0.9 uM incubated for 24 hrs by Annexin V-FITC/PI staining based flow cytometry (reference value: 4.44 %); assay type: functional
[22] = tested on: MOLM-13; experiment: Induction of apoptosis in human MOLM-13 cells assessed as viable cells at 0.9 uM incubated for 24 hrs by Annexin V-FITC/PI staining based flow cytometry (reference value: 95.1 %); assay type: functional; conditions: read-out: Activity
[23] = Antiproliferative activity against HEK293 cells incubated for 4 days by CCK8 assay; assay type: toxicity, cell-based; conditions: human
[24] = tested on: MOLM-13; experiment: cells; conditions: Homo sapiens, MOLM-13, 48 h
[25] = tested on: MOLM-13; experiment: Induction of apoptosis in human MOLM-13 cells assessed as necrotic cells at 0.1 uM incubated for 24 hrs by Annexin V-FITC/PI staining based flow cytometry (reference value: 0.020 %); assay type: functional
[26] = molecular target: Cellular tumor antigen p53 (Homo sapiens) (UniProt P04637); experiment: Activation of p53 pathway in human MOLM-13 cells assessed as increase in MDM2 mRNA level incubated for 24 hrs by qPCR analysis; assay type: cell-based; conditions: filed as activator, dose 0.038-0.6 µM
[27] = tested on: MOLM-13; experiment: Induction of apoptosis in human MOLM-13 cells assessed as necrotic cells at 8.1 uM incubated for 24 hrs by Annexin V-FITC/PI staining based flow cytometry (reference value: 0.020 %); assay type: functional
[28] = tested on: MOLM-13; experiment: Induction of apoptosis in human MOLM-13 cells assessed as viable cells at 2.7 uM incubated for 24 hrs by Annexin V-FITC/PI staining based flow cytometry (reference value: 95.1 %); assay type: functional; conditions: read-out: Activity
[29] = molecular target: Cellular tumor antigen p53 (Homo sapiens) (UniProt P04637); experiment: Activation of p53 pathway in human HCT-116 cells assessed as increase in MDM2 level at 1 uM incubated for 24 hrs by Western blot analysis; assay type: cell-based; conditions: filed as activator
[30] = tested on: MOLM-13; experiment: Induction of apoptosis in human MOLM-13 cells assessed as increase in caspase-3 level at 0.15 to 0.6 uM incubated for 24 hrs by Western blot analysis; assay type: functional, cell-based; conditions: dose 0.15-0.6 µM
[31] = tested on: MOLM-13; experiment: Induction of apoptosis in human MOLM-13 cells assessed as early apoptotic cells at 24.3 uM incubated for 24 hrs by Annexin V-FITC/PI staining based flow cytometry (reference value: 4.44 %); assay type: functional
[32] = tested on: HCT-116; experiment: cells; conditions: Homo sapiens, HCT-116, 96 h
[33] = molecular target: Cellular tumor antigen p53 (Homo sapiens) (UniProt P04637); experiment: Activation of p53 pathway in human HeLa cells assessed as increase in p53 level at 1 uM incubated for 24 hrs by Western blot analysis; assay type: cell-based
[34] = tested on: MOLM-13; experiment: Induction of apoptosis in human MOLM-13 cells assessed as necrotic cells at 2.7 uM incubated for 24 hrs by Annexin V-FITC/PI staining based flow cytometry (reference value: 0.020 %); assay type: functional
[35] = molecular target: Cellular tumor antigen p53 (Homo sapiens) (UniProt P04637); experiment: Activation of p53 pathway in human MOLM-13 cells assessed as increase in BAX mRNA level incubated for 24 hrs by qPCR analysis; assay type: cell-based; conditions: filed as activator, dose 0.038-0.6 µM
[36] = molecular target: Cellular tumor antigen p53 (Homo sapiens) (UniProt P04637); experiment: Activation of p53 pathway in human A549 cells assessed as increase in p21 level at 1 uM incubated for 24 hrs by Western blot analysis; assay type: cell-based; conditions: filed as activator

In the case of COc1cc(C(=O)O)ccc1N1CN2[C@@H](CC(C)(C)C)[C@@]3(CNc4cc(Cl)ccc43)[C@@H](c3cccc(Cl)c3)[C@@H]2C1=O, the Activity [1] is reported as 1.06%, the Activity [2] is reported as “Active” and the Activity [3] is reported as “inactive”. For the same compound, the Activity [4] was 0.047%, the Activity [5] was “Dose-Dependent Effect” and the Activity [6] was “Dose-Dependent Effect”. The viability at 24.3 µM [7] was 8.63%, the Activity [8] was “Active” and the Activity [9] was 0.797%. For the same compound, the Activity [10] was 24.4%, the Activity [11] was 0.998% and the Activity [12] was “Dose-Dependent Effect”. The Ki [13] was 0.4 nM, the Activity [14] was 1.41% and the viability at 8.1 µM [15] was 27.4%. The IC50 [16] was 5940 nM, the “Ratio IC50” value [17] was 1.6 and the Activity [18] was 0.119%. The Activity [19] was “Active”, the Activity [20] was 71% and the Activity [21] was 48.8%. It also gave a viability at 0.9 µM [22] of 50%, an IC50 at 4 days [23] of 9650 nM and an IC50 [24] of 0.8 nM. For the same compound, the Activity [25] was 0.124%, the Activity [26] was “Dose-Dependent Effect” and the Activity [27] was 0.176%. For the same compound, the viability at 2.7 µM [28] was 30.1%, the Activity [29] was “Active” and the Activity [30] was “Active”. The Activity [31] was 89.4%, the IC50 [32] was 28.1 nM and the Activity [33] was “inactive”. For the same compound, the Activity [34] was 0.125%, the Activity [35] was “Dose-Dependent Effect” and the Activity [36] was “Active”.
